Measured values reported in US20220332763A1, “FUSED POLYPEPTIDE AND USE THEREOF” (NANJING ANJI BIOLOGICAL TECHNOLOGY CO., LTD., priority 2019, published 2022).
Where no end group is shown, it is not given here.

Legend:
[1] = test system: SD rats with bleomycin-induced pulmonary fibrosis; assay: Bleomycin-induced pulmonary fibrosis animal model; assay type: in vivo; conditions: for Survival rate (%): dosage 10 mg/kg in Table 2, administration 14 days, model group 50
Protocol: SD rats were anesthetized by intraperitoneal injection of 1 mL/100 g 4% chloral hydrate. After anesthesia, the rats were fixed and their necks were disinfected by using cotton with 75% alcohol. The skin of the rat neck was longitudinally cut with scissors, and the fascia and muscle were longitudinally bluntly torn with tweezers to expose the trachea. A syringe was inserted into the trachea to inject 5 mg/kg bleomycin, while a blank group was injected with an equal amount of normal saline. Then a rat plate was quickly erected and rotated, the rats' breathing was observed, the neck wound was sterilized after rotation and was sewn, and an amoxicillin anti-inflammatory drug was sprinkled on the suture. After the operation, the rats were put back into a dry and clean cage for resting, waiting was performed for awakening. The rats were awakened after about 1-2 hours, and then fed normally. On the 7th day after modeling, modeling group animals randomly fell into a model group, a Nintedanib positive drug group, polypeptide I, II, III, IV, V, VI dosage groups, and a normal control group, and the groups were administered separately for an administration cycle of 14 days. Living situations of rats were observed every day and their weights were weighed. After administration for 14 days, the SD rats were dissected, the lung tissue was taken, and the right lung tissue was placed in a tissue fixative only for fixation, and HE staining and Masson staining and slice analysis were performed.

[2] = test system: LX-2 hepatic stellate cells; assay: In vitro hepatic fibrosis model, MTT assay; assay type: cell-based; conditions: 1 μmol/L; for Inhibition of proliferation (in words): 24 hours and 48 hours, Example 2; for Optical density value, 12 h / Optical density value, 24 h / Optical density value, 48 h: LX-2 cells, MTT, OD at 570 nm; for Optical density value, 12 h: blank group 0.456 ± 0.012; for Optical density value, 24 h: blank group 0.548 ± 0.01; for Optical density value, 48 h: blank group 0.812 ± 0.016
Protocol: (§1) The inhibitory effect of a polypeptide on LX-2 hepatic stellate cells was detected by MTT assay. Cells were cultured in a 1640 medium containing 10% of FBS, the […] was made into 4×10^5/mL cell suspension, and 100 μL per well was inoculated into a 96-well plate. After the cells adhered to the wall, the medium was replaced with a serum-free 1640 medium, and the serum-free medium was discarded after 24 hours. The cells were cultured with different polypeptides of 1 μmol/L, and 5 multiple wells were set for each concentration. After 12, 24 and 48 hours separately, 10 μL of MTT was added to each well. After 4 hours, MTT was sucked out, and 150 μL of DMSO was added to each well. After reaction for 5 min, an OD value was measured at 570 nm by a microplate reader.

TGF-β1 = assay: Renal fibrosis animal model (ureter ligation), TGF-β1 in serum; assay type: in vivo; conditions: SD rats with renal fibrosis; 7.5 mg/kg subcutaneous twice a day, 14 days; FIG. 3
Protocol: A renal fibrosis animal model was established. SD rats were anesthetized with 4% chloral hydrate, injected with 1 mL/100 g intraperitoneally, fixed to an operation board, and sterilized in an operation area for later use. […] Muscular layers and abdominal walls were sewed layer by layer, the suture was disinfected with alcohol. After SD rats woke up, the rats were put into a cage for feeding. In the blank group, ureter was not ligated, and other steps were the same.
Then, the animals fell into a blank group, a model group, and polypeptide administration groups, with 10 animals in each group, and the administration was started on the second day after the operation, twice a day for 14 days. After administration for 14 days, blood was taken and supernatant was taken to detect the content of TGF-β1 in serum.

[3] = test system: cardiac fibroblasts of rats; assay: Myocardial fibrosis model, MTT assay; assay type: cell-based; conditions: 1 μmol/L; for Inhibition of proliferation of cardiac fibroblasts of rats (in words): 24 hours and 48 hours; for Optical density value, 12 h / Optical density value, 24 h / Optical density value, 48 h: cardiac fibroblasts of rats, MTT, OD at 570 nm; for Optical density value, 12 h: blank group 0.353 ± 0.001; for Optical density value, 24 h: blank group 0.464 ± 0.018; for Optical density value, 48 h: blank group 0.896 ± 0.001
Protocol: as §1, with “cardiac fibroblasts of rats” for “LX-2 hepatic stellate cells”, “DMEM” for “1640”, “1×10^5/mL” for “4×10^5/mL”

HYP = assay: Bleomycin skin fibrosis model, HYP content in skin tissue; assay type: in vivo, C57/BL black mice; conditions: bleomycin skin fibrosis mice; 10 mg/kg subcutaneous twice a day, 28 days; FIG. 4
Protocol: Bleomycin (10 μg/mL) was injected subcutaneously every day for 28 days to form skin fibrosis. During the modeling period, the administration groups were given polypeptide drugs twice a day for treatment. After modeling, the mice were killed on the next day, and the skin tissue of the mouse back was taken to detect the content of HYP in the skin tissue.

COC(=O)c1ccc2c(c1)NC(=O)/C2=C(\Nc1ccc(N(C)C(=O)CN2CCN(C)CC2)cc1)c1ccccc1 [Positive drug group, Nintedanib, reference compound]
Survival rate (%) [1]: 90%

TSLDASIIWAMMQNGGGGLSKLGGGGSDKP [Polypeptide IV, Thr-Ser-Leu-Asp-Ala-Ser-Ile-Ile-Trp-Ala-Met-Met-Gln-Asn-linker-Leu-Ser-Lys-Leu-linker-Ser-Asp-Lys-Pro]
Survival rate (%) [1]: 80% | Inhibition of proliferation (in words) [2]: could inhibit the proliferation | Optical density value, 12 h [2]: 0.478 ± 0.018 | Optical density value, 24 h [2]: 0.472 ± 0.03 | Optical density value, 48 h [2]: 0.580 ± 0.012 | Content of TGF-β1 in serum versus model group (TGF-β1): highly significantly different from the model group (***P<0.001) | Inhibition of proliferation of cardiac fibroblasts of rats (in words) [3]: could inhibit the proliferation | Optical density value, 12 h [3]: 0.362 ± 0.015 | Optical density value, 24 h [3]: 0.392 ± 0.008 | Optical density value, 48 h [3]: 0.583 ± 0.012 | Expression of HYP content in tissue versus model group (HYP): highly significantly different from the model group (***P<0.001)

TSLDASIIWAMMQNGGGGSDKPGGGGLSKL [Polypeptide III, Thr-Ser-Leu-Asp-Ala-Ser-Ile-Ile-Trp-Ala-Met-Met-Gln-Asn-linker-Ser-Asp-Lys-Pro-linker-Leu-Ser-Lys-Leu]
Survival rate (%) [1]: 80% | Inhibition of proliferation (in words) [2]: could inhibit the proliferation | Optical density value, 12 h [2]: 0.455 ± 0.002 | Optical density value, 24 h [2]: 0.435 ± 0.013 | Optical density value, 48 h [2]: 0.642 ± 0.018 | Content of TGF-β1 in serum versus model group (TGF-β1): highly significantly different from the model group (**P<0.01) | Inhibition of proliferation of cardiac fibroblasts of rats (in words) [3]: could inhibit the proliferation | Optical density value, 12 h [3]: 0.349 ± 0.012 | Optical density value, 24 h [3]: 0.413 ± 0.003 | Optical density value, 48 h [3]: 0.612 ± 0.018 | Expression of HYP content in tissue versus model group (HYP): highly significantly different from the model group (*P<0.05)

Ac-SDKPGGGGLSKLGGGGTSLDASIIWAMMQN (N-terminus assumed) [Polypeptide I, Ser-Asp-Lys-Pro-linker-Leu-Ser-Lys-Leu-linker-Thr-Ser-Leu-Asp-Ala-Ser-Ile-Ile-Trp-Ala-Met-Met-Gln-Asn]
Survival rate (%) [1]: 90% | Survival rate compared with model group / positive drug group ([1]; in words): equivalent to that of the positive drug group | Inhibition of proliferation (in words) [2]: could inhibit the proliferation | Optical density value, 12 h [2]: 0.452 ± 0.008 | Optical density value, 24 h [2]: 0.542 ± 0.03 | Optical density value, 48 h [2]: 0.680 ± 0.014 | Content of TGF-β1 in serum versus model group (TGF-β1): highly significantly different from the model group (***P<0.001) | Inhibition of proliferation of cardiac fibroblasts of rats (in words) [3]: could inhibit the proliferation | Optical density value, 12 h [3]: 0.362 ± 0.006 | Optical density value, 24 h [3]: 0.402 ± 0.002 | Optical density value, 48 h [3]: 0.678 ± 0.002 | Expression of HYP content in tissue versus model group (HYP): highly significantly different from the model group (*P<0.05)

LSKLGGGGSDKPGGGGTSLDASIIWAMMQN [Polypeptide V, Leu-Ser-Lys-Leu-linker-Ser-Asp-Lys-Pro-linker-Thr-Ser-Leu-Asp-Ala-Ser-Ile-Ile-Trp-Ala-Met-Met-Gln-Asn]
Survival rate (%) [1]: 70% | Inhibition of proliferation (in words) [2]: could inhibit the proliferation | Optical density value, 12 h [2]: 0.462 ± 0.004 | Optical density value, 24 h [2]: 0.477 ± 0.015 | Optical density value, 48 h [2]: 0.618 ± 0.015 | Content of TGF-β1 in serum versus model group (TGF-β1): highly significantly different from the model group (**P<0.01) | Inhibition of proliferation of cardiac fibroblasts of rats (in words) [3]: could inhibit the proliferation | Optical density value, 12 h [3]: 0.357 ± 0.024 | Optical density value, 24 h [3]: 0.397 ± 0.015 | Optical density value, 48 h [3]: 0.588 ± 0.019 | Expression of HYP content in tissue versus model group (HYP): highly significantly different from the model group (*P<0.05)
